Results on 16 molecules are retold here after patent US20240043435A1, “TYK-2 INHIBITOR” (BEIGENE, LTD., priority 2020, published 2024).

Test [1] concerns the target T1, TYK2-JH2 (aa 575-869, in-house) protein (Homo sapiens, UniProt P29597).
T1 construct: TYK2-JH2 (aa 575-869, in-house) protein; made in house
As to the kind of experiment: TYK2-JH2 biochemical assay (HTRF probe displacement). Conditions: Biochemical assay; read-out: TYK2-JH2 IC50. The test is classed as binding. In a few lines: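 HTRF probe-displacement format: compound dilutions (10 points, 5-fold, from 500 uM in DMSO at 500×) were combined with 0.2 nM TYK2-JH2 protein for 0.5 h at room temperature in HEPES pH 7.5 buffer with MgCl2, BSA, DTT and Brij-35. Percent inhibition came from the 615/665 nm fluorescence ratio, fitted to a four-parameter logistic for IC50.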
(In general: Time-resolved FRET reads energy transfer from a long-lived donor to a nearby acceptor.)

For test [2], the system named is JAK2, TYK2/p-STAT4 (Tyr693) activated by IL-12 in NK-92 cell line. Put plainly: IL-12-JAK2, TYK2/p-STAT4 (Tyr693) inhibition IC50 cellular assay. The test is classed as cell-based. Conditions: for Selectivity fold (TYK2/JAK2): Cellular assay, pSTAT5/GM-CSF IC50 vs pSTAT4/IL-12 IC50; for IC50: NK92, Cellular assay, read-out: pSTAT4/IL-12 IC50. In a few lines:
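p-STAT4 (Tyr693) in lysates was measured by AlphaLISA SureFire Ultra after a 30 min IL-12 challenge (40 ng/ml final) at 37° C. Overnight-starved, IL-2-free NK-92 cells had been pretreated 1 h with compound at 10000 to 0.61 nM (4-fold, 8 points). IC50 values came from four-parameter logistic fitting.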

The next test relates to pSTAT5/GM-CSF. Put plainly: pSTAT5/GM-CSF cellular assay (JAK2 selectivity). In kind it is cell-based.

T1 sequence (P29597 575-869): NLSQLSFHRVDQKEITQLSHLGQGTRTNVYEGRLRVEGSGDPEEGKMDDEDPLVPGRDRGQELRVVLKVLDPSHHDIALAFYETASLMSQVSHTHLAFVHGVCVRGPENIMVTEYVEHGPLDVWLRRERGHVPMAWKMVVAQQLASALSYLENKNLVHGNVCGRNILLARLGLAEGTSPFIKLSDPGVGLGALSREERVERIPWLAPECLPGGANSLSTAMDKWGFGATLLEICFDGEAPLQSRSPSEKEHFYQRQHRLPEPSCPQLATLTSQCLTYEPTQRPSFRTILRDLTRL

Regarding `CC(=O)Nc1cc(Nc2cc(C)cc(S(C)(=O)=O)n2)c(-c2ccc(C(C)(C)O)cn2)cn1` [Example H9, N-(5-(2-hydroxypropan-2-yl)-4′-((4-methyl-6-(methylsulfonyl)pyridin-2-yl)amino)-[2,3′-bipyridin]-6′-yl)acetamide], the IC50 was 0.016 nM in test [1], 0.503 nM in test [2] and 1580 nM with pSTAT5/GM-CSF. Moreover, in test [2], the “Selectivity fold (TYK2/JAK2)” value is 3147 fold.

For `CC(=O)Nc1cc(Nc2cc(O[C@H]3C[C@H](O)C3)cc(S(C)(=O)=O)n2)c(-c2ccc(C(C)(C)O)cn2)cn1` [Example H10], the IC50 in test [1] is 0.017 nM; in test [2] it was 16.4 nM; in the test with pSTAT5/GM-CSF, greater than 10000 nM. Further, the “Selectivity fold (TYK2/JAK2)” value in test [2] was greater than 607 fold.

For `CC(=O)Nc1cc(Nc2cc(OCC3COC3)cc(S(C)(=O)=O)n2)c(-c2ccc(C(C)(C)O)cn2)cn1` [Example H12, N-(5-(2-hydroxypropan-2-yl)-4′-((6-(methylsulfonyl)-4-(oxetan-3-ylmethoxy)pyridin-2-yl)amino)-[2,3′-bipyridin]-6′-yl)acetamide], the IC50 is 0.022 nM in test [1], 5.1 nM in test [2] and greater than 10000 nM in the test on pSTAT5/GM-CSF. The “Selectivity fold (TYK2/JAK2)” value in test [2] is greater than 1960 fold.

For `COCc1cc(Nc2cc(NC(C)=O)ncc2-c2ccc(C(C)(C)O)cn2)nc(S(C)(=O)=O)c1` [Example H13, N-(5-(2-hydroxypropan-2-yl)-4′-((4-(methoxymethyl)-6-(methylsulfonyl)pyridin-2-yl)amino)-[2,3′-bipyridin]-6′-yl)acetamide], the IC50 in test [1] was 0.042 nM; in test [2] it was 0.676 nM; with pSTAT5/GM-CSF it was 4080 nM. In addition, the “Selectivity fold (TYK2/JAK2)” value in test [2] is recorded as 6028 fold.

In the case of `CC(=O)Nc1cc(Nc2cc(C#N)cc(S(C)(=O)=O)n2)c(-c2ccc(C(C)(C)O)cn2)cn1` [Example H14, N-(4′-((4-cyano-6-(methylsulfonyl)pyridin-2-yl)amino)-5-(2-hydroxypropan-2-yl)-[2,3′-bipyridin]-6′-yl)acetamide], the figures for the IC50 (in test [1]; in test [2]; with pSTAT5/GM-CSF) were 0.034 nM, 0.727 nM and greater than 10000 nM, respectively. Further, in test [2], the “Selectivity fold (TYK2/JAK2)” value is listed as greater than 13755 fold.

On to `COCCOc1cc(Nc2cc(NC(C)=O)ncc2-c2ccc(C(C)(C)O)cn2)cc(S(C)(=O)=O)c1` [Example H15, N-(5-(2-hydroxypropan-2-yl)-4′-((3-(2-methoxyethoxy)-5-(methylsulfonyl)phenyl)amino)-[2,3′-bipyridin]-6′-yl)acetamide], for which the IC50 is 0.029 nM in test [1], 4.89 nM in test [2] and greater than 10000 nM in the test on pSTAT5/GM-CSF. Moreover, the “Selectivity fold (TYK2/JAK2)” value in test [2] was greater than 2044 fold.

With `COCc1cc(Nc2cc(NC(C)=O)ncc2-c2ccc(C(C)(C)O)cn2)cc(S(C)(=O)=O)c1` [Example H16, N-(5-(2-hydroxypropan-2-yl)-4′-((3-(methoxymethyl)-5-(methylsulfonyl)phenyl)amino)-[2,3′-bipyridin]-6′-yl)acetamide], the IC50 in test [1] was 0.028 nM; in test [2], 7.51 nM; in the test with pSTAT5/GM-CSF, greater than 10000 nM. The “Selectivity fold (TYK2/JAK2)” value in test [2] is reported as greater than 1331 fold.

On to `CC(=O)Nc1cc(Nc2cc(N3CCC(O)C3)cc(S(C)(=O)=O)c2)c(-c2ccc(C(C)(C)O)cn2)cn1` (stereo not shown) [Example H17, N-(5-(2-hydroxypropan-2-yl)-4′-((3-(3-hydroxypyrrolidin-1-yl)-5-(methylsulfonyl)phenyl)amino)-[2,3′-bipyridin]-6′-yl)acetamide], for which the IC50 in test [1] was 0.034 nM; in test [2], 67 nM; with pSTAT5/GM-CSF, greater than 10000 nM. Further, the “Selectivity fold (TYK2/JAK2)” value in test [2] is reported as greater than 149 fold.

As to `CC(=O)Nc1cc(Nc2cc(OC(F)(F)F)cc(S(C)(=O)=O)c2)c(-c2ccc(C(C)(C)O)cn2)cn1` [Example H18, N-(5-(2-hydroxypropan-2-yl)-4′-((3-(methylsulfonyl)-5-(trifluoromethoxy)phenyl)amino)-[2,3′-bipyridin]-6′-yl)acetamide], the IC50 was 0.032 nM in test [1], 5.54 nM in test [2] and greater than 10000 nM with pSTAT5/GM-CSF. Besides, the “Selectivity fold (TYK2/JAK2)” value in test [2] is on record as greater than 1805 fold.

Turning to `CC(=O)Nc1cc(Nc2cc(F)cc(S(C)(=O)=O)c2)c(-c2ccc(C(C)(C)O)cn2)cn1` [Example H19, N-(4′-((3-fluoro-5-(methylsulfonyl)phenyl)amino)-5-(2-hydroxypropan-2-yl)-[2,3′-bipyridin]-6′-yl)acetamide], the IC50 in test [1] is 0.028 nM; in test [2] it was 3.2 nM; with pSTAT5/GM-CSF, greater than 10000 nM. The “Selectivity fold (TYK2/JAK2)” value in test [2] was greater than 3125 fold.

Take `CC(=O)Nc1cc(Nc2cc(C#N)cc(S(C)(=O)=O)c2)c(-c2ccc(C(C)(C)O)cn2)cn1` [Example H20, N-(4′-((3-cyano-5-(methylsulfonyl)phenyl)amino)-5-(2-hydroxypropan-2-yl)-[2,3′-bipyridin]-6′-yl)acetamide]: the figures for the IC50 (in test [1]; in test [2]; with pSTAT5/GM-CSF) were 0.046 nM, 35.2 nM and greater than 10000 nM, respectively. Also, the “Selectivity fold (TYK2/JAK2)” value in test [2] is recorded as greater than 284 fold.

Consider `CC(=O)Nc1cc(Nc2cc(C)cc(S(C)(=O)=O)c2)c(-c2ccc(C(C)(C)O)cn2)cn1` [Example H21, N-(5-(2-hydroxypropan-2-yl)-4′-((3-methyl-5-(methylsulfonyl)phenyl)amino)-[2,3′-bipyridin]-6′-yl)acetamide], for which the IC50 was 0.024 nM in test [1], 2.24 nM in test [2] and greater than 10000 nM in the test on pSTAT5/GM-CSF. Also, the “Selectivity fold (TYK2/JAK2)” value in test [2] was greater than 4464 fold.

For the molecule `CC(=O)Nc1cc(Nc2cc(OCC3CC3)cc(S(C)(=O)=O)c2)c(-c2ccc(C(C)(C)O)cn2)cn1` [Example H22, N-(4′-((3-(cyclopropylmethoxy)-5-(methylsulfonyl)phenyl)amino)-5-(2-hydroxypropan-2-yl)-[2,3′-bipyridin]-6′-yl)acetamide], the IC50 in test [1] is 0.038 nM; in test [2], 2.76 nM; in the test with pSTAT5/GM-CSF, greater than 10000 nM. In test [2], the “Selectivity fold (TYK2/JAK2)” value is reported as greater than 3623 fold.

Regarding `CC(=O)Nc1cc(Nc2cc(OC3CC3)cc(S(C)(=O)=O)c2)c(-c2ccc(C(C)(C)O)cn2)cn1` [Example H23, N-(4′-((3-cyclopropoxy-5-(methylsulfonyl)phenyl)amino)-5-(2-hydroxypropan-2-yl)-[2,3′-bipyridin]-6′-yl)acetamide], the IC50 in test [1] was 0.034 nM; in test [2], 5.7 nM; with pSTAT5/GM-CSF, greater than 10000 nM. Also, in test [2], the “Selectivity fold (TYK2/JAK2)” value was greater than 1754 fold.

As for `CC(=O)Nc1cc(Nc2cc(OC(C)C)cc(S(C)(=O)=O)c2)c(-c2ccc(C(C)(C)O)cn2)cn1` [Example H24, N-(5-(2-hydroxypropan-2-yl)-4′-((3-isopropoxy-5-(methylsulfonyl)phenyl)amino)-[2,3′-bipyridin]-6′-yl)acetamide], the IC50 was 0.034 nM in test [1], 5.39 nM in test [2] and greater than 10000 nM in the test with pSTAT5/GM-CSF. Further, the “Selectivity fold (TYK2/JAK2)” value in test [2] is given as greater than 1855 fold.

For the molecule `CC(=O)Nc1cc(Nc2cc(C(F)F)cc(S(C)(=O)=O)c2)c(-c2ccc(C(C)(C)O)cn2)cn1` [Example H25, N-(4′-((3-(difluoromethyl)-5-(methylsulfonyl)phenyl)amino)-5-(2-hydroxypropan-2-yl)-[2,3′-bipyridin]-6′-yl)acetamide], the IC50 in test [1] was 0.038 nM; in test [2] it was 7.53 nM; in the test on pSTAT5/GM-CSF, greater than 10000 nM. Moreover, the “Selectivity fold (TYK2/JAK2)” value in test [2] is greater than 1328 fold.
